# Target: T1, hCRTH2 receptor (Homo sapiens, UniProt Q9Y5Y4)
# T1 construct: expressed in transfected cells
# T1 sequence (Q9Y5Y4 1-395): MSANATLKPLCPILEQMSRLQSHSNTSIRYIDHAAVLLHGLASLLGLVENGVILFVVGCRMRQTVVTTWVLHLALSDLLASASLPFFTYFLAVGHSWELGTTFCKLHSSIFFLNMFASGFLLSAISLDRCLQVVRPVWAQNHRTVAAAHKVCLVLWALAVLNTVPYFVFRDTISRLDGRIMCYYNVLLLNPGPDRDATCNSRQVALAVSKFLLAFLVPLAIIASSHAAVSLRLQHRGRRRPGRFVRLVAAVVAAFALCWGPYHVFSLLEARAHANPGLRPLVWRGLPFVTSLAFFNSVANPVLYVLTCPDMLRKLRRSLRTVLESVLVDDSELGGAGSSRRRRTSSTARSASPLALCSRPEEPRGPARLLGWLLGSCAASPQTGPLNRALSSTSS
# Assay: Intracellular calcium mobilization assay (FLIPR), PGD2 challenge
# Assay type: cell-based
# Details: HEK-293 cells stably expressing hCRTH2; 10 nM prostaglandin D2 as agonist
# Procedure: A functional assay with cells expressing the human CRTH2 receptor may be used to detect changes in the levels of intracellular calcium concentration following compound treatment. After addition of the compound the cells are challenged with PGD2. In a Fluorescent Imaging Plate Reader (FLIPR™, Molecular Devices, Sunnyvale, Calif.) fluorescence emission is recorded during both additions, emission peak values above base level after PGD2 addition were exported, normalized to low controls (no PGD2) and high controls (no active compound). The relative values of the remaining activity were used to determine IC50 values by curve fitting the data to a single site to a four-parameter logistic sigmoid dose response curve of the equation (A+((B−A)/(1+((C/x)^D)))).
# Cells (HEK-293), stably expressing the hCRTH2 receptor under the control of the cytomegalovirus promotor from a single insertion of the expression vector pcDNA5 (Invitrogen), are grown to confluency in DMEM (low glucose, Gibco) medium supplemented with 10% fetal calf serum (both Bioconcept, Switzerland) under standard mammalian cell culture conditions (37° C. in a humidified atmosphere of 5% CO2). Cells are detached from culture dishes using a dissociation buffer (0.02% EDTA in PBS, Gibco) for 1 min, and collected by centrifugation at 200 g at rt for 5 min in assay buffer (equal parts of Hank's BSS (HBSS, Bioconcept) and DMEM (low glucose, without phenol red, Gibco)). After incubation for 45 min (37° C. and 5% CO2) in the presence of 1 μM Fluo-4 and 0.04% Pluronic F-127 (both Molecular Probes), 20 mM HEPES (Gibco) in assay buffer, the cells are washed with and resuspended in assay buffer, then seeded onto 384-well FLIPR assay plates (Greiner) at 50,000 cells in 66 μl per well, and sedimented by centrifugation.
# Stock solutions of test compounds are made up at a concentration of 10 mM in DMSO, and serially diluted in assay buffer to concentrations required for inhibition dose response curves. Prostaglandin D2 (Biomol, Plymouth Meeting, Pa.) is used as an agonist.
# A FLIPR384 instrument (Molecular Devices) is operated according to the manufacturer's standard instructions, adding 4 μl of test compound dissolved at 10 mM in DMSO and diluted prior to the experiment in assay buffer to obtain the desired final concentration. 10 μl of 80 nM prostaglandin D2 (Biomol, Plymouth Meeting, Pa.) in assay buffer, supplemented with 0.8% bovine serum albumin (fatty acid content<0.02%, Sigma), is then added to obtain a final concentration of 10 nM and 0.1%, respectively. Changes in fluorescence are monitored before and after the addition of test compounds at λex=488 nm and λem=540 nm. Emission peak values above base level after prostaglandin D2 addition are exported after base line subtraction. Values are normalized to high-level control (no test compound added) after subtraction of base line value (no prostaglandin D2 added). The program XL1fit 3.0 (IDBS) is used to fit the data to a single site dose response curve of the equation (A+((B−A)/(1+((C/x)^D)))) and to calculate the IC50 values.
row,Structure (SMILES),IC50
1,"CN(C(=O)C1(C)CCc2c(c3ccccc3n2CC(=O)O)C1)c1cccc(Cl)c1 (racemic) [Example B-10, (±)-{3-[(3-Chloro-phenyl)-methyl-carbamoyl]-3-methyl-1,2,3,4-tetrahydro-carbazol-9-yl}-acetic acid]",20 nM
2,"CN(C(=O)C1CCc2c(c3ccccc3n2CC(=O)O)C1)C(c1ccccc1)c1ccccc1 (racemic) [Example A-42, (±)-[3-(Benzhydryl-methyl-carbamoyl)-1,2,3,4-tetrahydro-carbazol-9-yl]-acetic acid]",17 nM
3,"CN(C(=O)C1CCc2c(c3cc([N+](=O)[O-])ccc3n2CC(=O)O)C1)c1ccccc1 (racemic) [(±)-[3-(Methyl-phenyl-carbamoyl)-6-nitro-1,2,3,4-tetrahydro-carbazol-9-yl]-acetic acid]",11 nM
4,"CCC1(C(=O)N2CCc3ccccc32)CCc2c(c3ccccc3n2CC(=O)O)C1 (racemic) [Example B-22, (±)-[3-(2,3-Dihydro-indole-1-carbonyl)-3-ethyl-1,2,3,4-tetrahydro-carbazol-9-yl]-acetic acid]",67 nM
5,"CN(C(=O)C1CCc2c(c3ccccc3n2CC(=O)O)C1)c1ccccc1C(F)(F)F (racemic) [Example A-37, (±)-{3-[Methyl-(2-trifluoromethyl-phenyl)-carbamoyl]-1,2,3,4-tetrahydro-carbazol-9-yl}-acetic acid]",45 nM
6,"O=C(O)Cn1c2c(c3cc(F)ccc31)CC(C(=O)N1CCN(c3ccc(F)cc3)CC1)CC2 (single isomer, unassigned; (-)) [(−)-{6-Fluoro-3-[4-(4-fluoro-phenyl)-piperazine-1-carbonyl]-1,2,3,4-tetrahydro-carbazol-9-yl}-acetic acid]",599 nM
7,"CN(C(=O)C1(C)CCc2c(c3ccccc3n2CC(=O)O)C1)c1ccccc1 (racemic) [Example B-01, (±)-[3-Methyl-3-(methyl-phenyl-carbamoyl)-1,2,3,4-tetrahydro-carbazol-9-yl]-acetic acid]",13 nM
8,"O=C(O)Cn1c2c(c3cc(F)ccc31)CC(C(=O)N1CCc3ccccc31)CC2 (single isomer, unassigned; (+)) [(+)-[3-(2,3-Dihydro-indole-1-carbonyl)-6-fluoro-1,2,3,4-tetrahydro-carbazol-9-yl]-acetic acid]",28 nM
9,"CC1(C(=O)N(CCC#N)Cc2ccccc2)CCc2c(c3ccccc3n2CC(=O)O)C1 (racemic) [Example B-56, (±)-{3-[Benzyl-(2-cyano-ethyl)-carbamoyl]-3-methyl-1,2,3,4-tetrahydro-carbazol-9-yl}-acetic acid]",36 nM
10,"O=C(O)Cn1c2c(c3cc(F)ccc31)CC(C(=O)N1CCCCCCC1)CC2 (single isomer, unassigned; (+)) [(+)-[3-(Azocane-1-carbonyl)-6-fluoro-1,2,3,4-tetrahydro-carbazol-9-yl]-acetic acid]",46 nM

# Target: T1, hCRTH2 receptor
# Assay: CRTH2 membranes radioligand binding assay ({3H}-PGD2)
# Details: {3H}-PGD2 2.5 nM; membranes of HEK 293 cells expressing recombinant hCRTH2; read-out: hCRTH2 BDG IC50
# Procedure: Cells are detached from culture plates in 5 ml buffer A (5 mM Tris, 1 mM MgCl2×6 H2O, 0.1 mM PMSF, 0.1 mM phenanthroline) per plate using a police rubber and transferred into centrifugation tubes and frozen at −80° C. After thawing, the cells are centrifuged at 500 g for 5 min and then resuspended in buffer A. Cells are then fragmented by homogenization with a Polytron homogenizer for 30 s. The membrane fragments are centrifuged at 3000 g for 40 min and resuspended in membranes in buffer B (50 mM Tris, 25 mM MgCl2, 250 mM saccharose, pH 7.4) and aliquots are stored frozen.
# Binding assay is performed in a total volume of 250 μl. […] For unspecific binding, PGD2 is added to the reaction mixture at 1 μM final concentration. This binding assay mix is incubated at rt for 90 min and then filtered through a GF/C filter plate. The filter is washed three times with ice cold binding buffer. Then, 40 μl per well Microscint-40 (Packard) are added and the bound radioactivity is quantified by means of Topcount (Packard).
row,Structure (SMILES),IC50
1,"CN(C(=O)C1(C)CCc2c(c3ccccc3n2CC(=O)O)C1)c1cccc(Cl)c1 (racemic) [Example B-10, (±)-{3-[(3-Chloro-phenyl)-methyl-carbamoyl]-3-methyl-1,2,3,4-tetrahydro-carbazol-9-yl}-acetic acid]",1 nM
2,"CC1(C(=O)N(Cc2ccsc2)c2ccccc2)CCc2c(c3ccccc3n2CC(=O)O)C1 (racemic) [Example B-07, (±)-[3-Methyl-3-(phenyl-thiophen-3-ylmethyl-carbamoyl)-1,2,3,4-tetrahydro-carbazol-9-yl]-acetic acid]",2 nM
3,"O=C(O)Cn1c2c(c3ccccc31)CC(C(=O)N1CCc3ccccc31)CC2 (racemic) [Example A-39, (±)-[3-(2,3-Dihydro-indole-1-carbonyl)-1,2,3,4-tetrahydro-carbazol-9-yl]-acetic acid]",2 nM
4,"CN(C(=O)C1(C)CCc2c(c3ccccc3n2CC(=O)O)C1)c1ccccc1 (racemic) [Example B-01, (±)-[3-Methyl-3-(methyl-phenyl-carbamoyl)-1,2,3,4-tetrahydro-carbazol-9-yl]-acetic acid]",3 nM
5,"CC1(C(=O)NCc2cc(F)cc(F)c2)CCc2c(c3ccccc3n2CC(=O)O)C1 (racemic) [Example B-68, (±)-[3-(3,5-Difluoro-benzylcarbamoyl)-3-methyl-1,2,3,4-tetrahydro-carbazol-9-yl]-acetic acid]",19 nM
6,"CCCC1(C(=O)Nc2cccc(F)c2)CCc2c(c3ccccc3n2CC(=O)O)C1 (racemic) [Example B-32, (±)-[3-(3-Fluoro-phenylcarbamoyl)-3-propyl-1,2,3,4-tetrahydro-carbazol-9-yl]-acetic acid]",22 nM
7,"CC(C)N(Cc1ccccc1)C(=O)C1CCc2c(c3cc(F)ccc3n2CC(=O)O)C1 (single isomer, unassigned; (+)) [(+)-[3-(Benzyl-isopropyl-carbamoyl)-6-fluoro-1,2,3,4-tetrahydro-carbazol-9-yl]-acetic acid]",3 nM
8,"CC(C)N(Cc1ccccc1)C(=O)C1CCc2c(c3cc(F)ccc3n2CC(=O)O)C1 (single isomer, unassigned; (-)) [(−)-[3-(Benzyl-isopropyl-carbamoyl)-6-fluoro-1,2,3,4-tetrahydro-carbazol-9-yl]-acetic acid]",67 nM
9,"CC1(C(=O)N(Cc2ccccc2)c2ccccc2)CCc2c(c3ccccc3n2CC(=O)O)C1 (racemic) [Example B-04, (±)-[3-(Benzyl-phenyl-carbamoyl)-3-methyl-1,2,3,4-tetrahydro-carbazol-9-yl]-acetic acid]",3 nM
